Source: ChEMBL document CHEMBL1134734, “Introduction of alkynyl chains on C-8 of adenosine led to very selective antagonists of the A(3) adenosine receptor” (Bioorg Med Chem Lett, 2001)
pEC50, pIC50, pKi: −log10 of the molar value.

Legend:
[1] = molecular target: T1, Adenosine receptor A2b (Homo sapiens, UniProt P29275); assay: Receptor stimulated adenylyl cyclase activity in CHO cells expressing human recombinant Adenosine A2B receptor; format: functional, cell-based
T1 sequence (P29275 whole entry): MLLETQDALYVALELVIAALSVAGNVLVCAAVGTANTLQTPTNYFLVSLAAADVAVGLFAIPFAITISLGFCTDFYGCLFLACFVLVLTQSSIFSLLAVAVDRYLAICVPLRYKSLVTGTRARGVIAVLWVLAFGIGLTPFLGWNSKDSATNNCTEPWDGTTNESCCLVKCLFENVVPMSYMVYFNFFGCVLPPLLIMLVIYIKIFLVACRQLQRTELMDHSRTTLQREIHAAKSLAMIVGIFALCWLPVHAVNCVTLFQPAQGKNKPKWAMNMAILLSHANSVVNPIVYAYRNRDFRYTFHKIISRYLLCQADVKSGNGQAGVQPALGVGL

[2] = molecular target: T2, Adenosine receptor A3 (Homo sapiens, UniProt P0DMS8); assay: [3H]NECA […] binding in CHO cells expressing human Adenosine A3 receptor; format: cell-based
T2 sequence (P0DMS8 whole entry): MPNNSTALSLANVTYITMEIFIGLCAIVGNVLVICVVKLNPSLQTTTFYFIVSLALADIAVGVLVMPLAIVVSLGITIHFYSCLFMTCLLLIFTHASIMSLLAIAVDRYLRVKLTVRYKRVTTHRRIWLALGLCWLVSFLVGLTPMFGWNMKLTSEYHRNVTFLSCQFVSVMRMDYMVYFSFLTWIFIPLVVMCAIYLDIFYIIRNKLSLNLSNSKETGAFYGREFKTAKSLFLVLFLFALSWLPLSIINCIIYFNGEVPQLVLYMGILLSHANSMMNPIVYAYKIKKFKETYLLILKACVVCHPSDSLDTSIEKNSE

[3] = molecular target: T3, Adenosine receptor A3 (Homo sapiens) (UniProt P0DMS8); assay: Stimulation of [35S]GTP gamma-S binding in CHO cell membranes expressing human A3 receptor at 983 uM; format: functional
T3 sequence (whole entry): T2 sequence (P0DMS8 whole entry)

[4] = molecular target: Adenosine receptor A2a (Homo sapiens, UniProt P29274); assay: [3H]NECA […] binding in CHO cells expressing human recombinant A2A adenosine receptor; format: cell-based
[5] = molecular target: T4, Adenosine receptor A1 (Homo sapiens, UniProt P30542); assay: Displacement of [3H]-CCPA from CHO cells expressing human recombinant Adenosine A1 receptor; format: cell-based
T4 sequence (P30542 whole entry): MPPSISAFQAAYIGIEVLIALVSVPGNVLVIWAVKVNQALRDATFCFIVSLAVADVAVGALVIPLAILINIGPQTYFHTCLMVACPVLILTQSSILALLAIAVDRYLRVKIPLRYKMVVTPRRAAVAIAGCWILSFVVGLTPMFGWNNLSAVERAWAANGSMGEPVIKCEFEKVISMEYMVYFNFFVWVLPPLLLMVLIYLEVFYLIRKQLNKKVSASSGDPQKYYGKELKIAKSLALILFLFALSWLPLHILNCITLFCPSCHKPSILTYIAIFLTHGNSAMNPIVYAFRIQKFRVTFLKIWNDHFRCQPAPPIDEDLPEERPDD

[6] = molecular target: T1, Adenosine receptor A2b; assay: Antagonistic activity against Adenosine A2B receptor; format: functional
[7] = molecular target: T3, Adenosine receptor A3 (Homo sapiens); assay: Stimulation of [35S]GTP gamma-S binding in CHO cell membranes expressing human A3 receptor at 78.8 uM; format: functional
[8] = molecular target: T3, Adenosine receptor A3 (Homo sapiens); settings: CHO, 1 uM
Description: Inhibition of [35S]GTP gamma-S binding to CHO cell membranes expressing human A3 receptor at 1 uM

Chain of Adenosine receptor A2a (P29274 whole entry): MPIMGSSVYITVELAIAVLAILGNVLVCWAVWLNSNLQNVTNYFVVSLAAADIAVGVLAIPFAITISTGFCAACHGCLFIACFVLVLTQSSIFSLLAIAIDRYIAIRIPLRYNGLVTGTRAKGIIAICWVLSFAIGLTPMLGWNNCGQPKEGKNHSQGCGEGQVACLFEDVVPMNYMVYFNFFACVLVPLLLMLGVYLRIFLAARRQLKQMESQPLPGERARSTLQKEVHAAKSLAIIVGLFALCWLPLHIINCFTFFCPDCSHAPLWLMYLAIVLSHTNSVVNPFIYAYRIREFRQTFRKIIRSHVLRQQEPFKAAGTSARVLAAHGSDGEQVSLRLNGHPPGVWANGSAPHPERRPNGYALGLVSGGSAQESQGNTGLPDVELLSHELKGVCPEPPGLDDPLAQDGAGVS

Row | SMILES | pEC50 [1] | pKi [2] | Agonist effect [3] [%] | pKi [4] | pKi [5] | pIC50 [6] | Agonist effect [7] [%] | Agonist effect [8] [%]
1 | Nc1ncnc2c1nc(/C=C/C(=O)c1ccccc1)n2[C@@H]1O[C@H](CO)[C@@H](O)[C@H]1O | < 4.00 | 5.01 | 1.9 | 4.33 | < 4.00 | – | – | –
2 | CCn1c(C#Cc2ccccc2)nc2c(N)ncnc21 | – | 7.07 | – | 6.22 | – | ≤ 4.00 | – | –
3 | Nc1ncnc2c1nc(C#Cc1ccccc1)n2[C@@H]1O[C@H](CO)C(O)C1O (single isomer, unassigned) | < 4.00 | 6.10 | – | < 4.00 | < 4.00 | – | 0.2 | –
4 | CCNC(=O)[C@H]1O[C@@H](n2cnc3c(N)ncnc32)[C@H](O)[C@@H]1O | – | – | – | – | – | – | – | 100
5 | CCCCC#Cc1nc2c(N)ncnc2n1[C@@H]1O[C@H](CO)C(O)C1O (single isomer, unassigned) | < 4.00 | – | – | < 4.00 | < 4.00 | – | – | –
